Results as given in paper PMC9085648, “Synthesis of novel genistein amino acid derivatives and investigation on their interactions with bovine serum albumin by spectroscopy and molecular docking” (RSC Advances, 2018).
Where two headings read alike, the source gives them in different places.

Columns and labels:
BSA [1] = biological target: T1, BSA (Bos taurus, UniProt P02769); assay: Three-dimensional fluorescence spectroscopy of BSA; type: binding, bovine
T1 construct: purchased Aladdin's Reagent Co., Ltd. (Shanghai, China)
Description: The 3D fluorescence spectra of genistein and compounds 4a–4d were recorded with scanning excitation wavelength ranged from 200 nm to 300 nm with 10 nm interval, and emission wavelength ranged from 290 nm to 470 nm with 5 nm interval for three times. Other parameters were the same as Section 2.4.1.

Hela = assay: MTT cytotoxicity assay, Hela; type: cell-based; details: Homo sapiens, 48 h, mean ± SD of three experiments, read-out: Cancer cell lines IC50, Hela
Description: (§1) All cell lines were purchased from the Cell Bank of Type Culture Collection of Chinese Academy of Sciences (Shanghai, China). MGC-803 was routinely cultured in RPMI-1640 medium containing 10% FBS and 1% penicillin/streptomycin. MCF-7, HCT-116 and Hela were routinely cultured in medium DMEM/high glucose containing 10% FBS and 1% penicillin/streptomycin. All cell lines were incubated in culture at 37 °C in air with 5% CO2 for 24 h.
(§2) All cell lines were plated in 96-well plates, and each well contains 4000 cells in 100 μL culture medium. Then the cells were treated with genistein or its amino acid derivatives dissolved in DMSO at different doses in a CO2 incubator at 37 °C for 48 h, and DMSO was used as vehicle control. After removing the culture medium, 10 μL MTT and 90 μL blank culture medium were added to each well and incubated for additional 4 h at 37 °C. The absorbance was determined by a microplate-reader at 490 nm.

HCT-116 = assay: MTT cytotoxicity assay, HCT-116; type: cell-based; details: Homo sapiens, 48 h, mean ± SD of three experiments, read-out: Cancer cell lines IC50, HCT-116
Description: as §1, §2

BSA [2] = biological target: T1, BSA; assay: Fluorescence quenching of BSA (Stern-Volmer, double-log, van't Hoff); type: binding, bovine; details: for K SV (quenching constant): BSA 1 μM, pH 7.4; for ΔGexp: ΔGexp = ΔH − TΔS; for K q (quenching rate constant): τ0 = 10^−8 s; for Kd: read-out: K b (binding constant) (converted); for ΔH / ΔS: van't Hoff, 298-310 K
Description: Fluorescence spectra were carried on a F-7000 fluorescence spectrophotometer (Japan) fitted out with a 1.0 cm quartz dish. The excitation wavelength was set at 280 nm with 5/5 nm slit widths, while the emission wavelength ranged from 290 nm to 500 nm at different temperatures. The BSA solution (1 μM) was titrated with genistein and its amino acid derivatives 4a–4d for three times. The final concentrations of genistein and 4a–4d were (0.0, 6.4, 12.8, 19.2, 25.6, 32, 38.4, 44.8, and 51.2) μM.
The Stern–Volmer equation is often applied to reveal the fluorescence quenching mechanism:[19]1 [drawing 1] where F0 and F are the fluorescence intensities of complex […], respectively.[18] [Q] denotes the concentration of quencher. Ksv and Kq are quenching constant and quenching rate constant of BSA, respectively.[20]τ0 is the lifetime of fluorophore in the absence of genistein, 4a–4d and equals to 10^−8 s.[21] […] It can be observed that the Ksv values decreased gradually with rise in temperature in Table 2. Furthermore, Kq values were in the order of 10^12, which were larger than the maximum diffusion collisional rate constant (2.0 × 10^10 M^−1 s^−1).[22]
Double-logarithmic eqn (2) is often used to explore the binding parameters of static quenching, such as binding constant (Kb) and binding sites (n):[23]2 [drawing 2]
To clarify the binding forces between genistein, 4a–4d and BSA, the thermodynamic parameters were studied via the van't Hoff equations:[25]3 [drawing 3] 4 ΔG = −RT ln K = ΔH − TΔSwhere T denotes the experimental temperature, K denotes the binding constant at the corresponding temperature, R is the gas constant.[26] According to Ross and Subramanian's previous research,[27] the characteristic for van der Waals interactions or/and hydrogen bonding is ΔH < 0 and ΔS < 0, for hydrophobic interaction is ΔH > 0 and ΔS > 0, and for electrostatic interactions is ΔH ≈ 0 and ΔS > 0.[28] The calculation results of the thermodynamic parameters were recorded in Table 3.

MCF-7 = assay: MTT cytotoxicity assay, MCF-7; type: cell-based; details: Homo sapiens, MCF7, 48 h, mean ± SD of three experiments, read-out: Cancer cell lines IC50, MCF-7
Description: as §1, §2

MGC-803 = assay: MTT cytotoxicity assay, MGC-803; type: cell-based; details: Homo sapiens, 48 h, mean ± SD of three experiments, read-out: Cancer cell lines IC50, MGC-803
Description: as §1, §2

[3] = Peak 1, [BSA]:[compound] = 1:3, 298 K
[4] = Peak 2, [BSA]:[compound] = 1:3, 298 K
[5] = Peak a (Rayleigh scattering), [BSA]:[compound] = 1:3, 298 K

T1 sequence (P02769 25-607): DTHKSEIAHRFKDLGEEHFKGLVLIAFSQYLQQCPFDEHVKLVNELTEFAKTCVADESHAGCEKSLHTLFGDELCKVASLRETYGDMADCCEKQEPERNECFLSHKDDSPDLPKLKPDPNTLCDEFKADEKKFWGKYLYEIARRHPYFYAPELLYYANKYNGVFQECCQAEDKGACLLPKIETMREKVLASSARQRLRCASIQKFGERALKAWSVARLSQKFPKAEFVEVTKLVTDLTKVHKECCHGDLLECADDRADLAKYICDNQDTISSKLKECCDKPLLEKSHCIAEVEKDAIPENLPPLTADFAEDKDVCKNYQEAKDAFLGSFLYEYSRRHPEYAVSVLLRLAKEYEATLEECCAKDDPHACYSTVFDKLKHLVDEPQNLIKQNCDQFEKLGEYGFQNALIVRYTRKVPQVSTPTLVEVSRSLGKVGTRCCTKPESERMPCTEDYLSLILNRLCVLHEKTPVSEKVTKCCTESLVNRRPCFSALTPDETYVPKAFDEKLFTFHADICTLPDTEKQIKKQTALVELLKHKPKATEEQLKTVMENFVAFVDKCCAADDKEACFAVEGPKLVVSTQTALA

Compound | 3D fluorescence intensity (BSA [1]; [3]) [a.u] | 3D fluorescence peak position λex/λem (BSA [1]; [3]) | 3D fluorescence intensity (BSA [1]; [4]) [a.u] | 3D fluorescence peak position λex/λem (BSA [1]; [4]) | 3D fluorescence intensity (BSA [1]; [5]) [a.u] | 3D fluorescence peak position λex/λem (BSA [1]; [5]) | IC50 (Hela) [µM] | IC50 (HCT-116) [µM] | K SV (quenching constant) (BSA [2]; T 298 K) | ΔGexp (BSA [2]; T 298 K) [kJ/M] | K q (quenching rate constant) (BSA [2]; T 298 K) | Kd (BSA [2]; T 298 K) [µM] | n (binding sites) (BSA [2]; T 306 K) | K SV (quenching constant) (BSA [2]; T 306 K) | ΔGexp (BSA [2]; T 306 K) [kJ/M] | K q (quenching rate constant) (BSA [2]; T 306 K) | Kd (BSA [2]; T 306 K) [µM] | n (binding sites) (BSA [2]; T 310 K) | ΔGexp (BSA [2]; T 310 K) [kJ/M] | Kd (BSA [2]; T 310 K) [µM] | also measured
COC(=O)CNC(=O)COc1cc(O)c2c(=O)c(-c3ccc(O)cc3)coc2c1 [4a] | 249.8 | 230/355 | 300.8 | 280/355 | 167.9 | 290/295 | 66.6 ± 3.6 | 65.3 ± 2.91 | 9.3690 ± 0.1055 10^4 M^−1 | -49.21 | 9.3690 10^12 M^−1 s^−1 | 0.0023 | 1.72 | 9.0645 ± 0.0720 10^4 M^−1 | -47.21 | 9.0645 10^12 M^−1 s^−1 | 0.00952 | 1.66 | -46.22 | 0.0153 | n (binding sites) (BSA [2]; T 298 K): 1.86; K SV (quenching constant) (BSA [2]; T 310 K): 7.7362 ± 0.1223 10^4 M^−1; K q (quenching rate constant) (BSA [2]; T 310 K): 7.7362 10^12 M^−1 s^−1; ΔH (BSA [2]): -123.52 kJ/M; ΔS (BSA [2]): −249.37 J K^−1 M^−1; IC50 (MCF-7): > 100 µM; IC50 (MGC-803): 24.4 ± 1.27 µM
COC(=O)C(C)NC(=O)COc1cc(O)c2c(=O)c(-c3ccc(O)cc3)coc2c1 (stereo not drawn) [4b] | 199.8 | 230/355 | 242.6 | 280/355 | 140.7 | 290/295 | 90.27 ± 0.47 | > 100 | 8.0160 ± 0.1379 10^4 M^−1 | -42.01 | 8.0160 10^12 M^−1 s^−1 | 0.0649 | 1.53 | 6.9409 ± 0.0956 10^4 M^−1 | -38.43 | 6.9409 10^12 M^−1 s^−1 | 0.0794 | 1.23 | -36.65 | 1.55 | ΔH (BSA [2]): -175.21 kJ/M; ΔS (BSA [2]): −446.98 J K^−1 M^−1; IC50 (MCF-7): 21.3 ± 2.24 µM; IC50 (MGC-803): 12.08 ± 0.06 µM
COC(=O)C(NC(=O)COc1cc(O)c2c(=O)c(-c3ccc(O)cc3)coc2c1)C(C)C (stereo not drawn) [4c] | 254.6 | 230/355 | 338.3 | 280/355 | 210.9 | 290/295 | 82.71 ± 0.15 | 42.64 ± 0.15 | 6.2575 ± 0.1717 10^4 M^−1 | -41.29 | 6.2575 10^12 M^−1 s^−1 | 0.084 | 1.53 | 5.0010 ± 0.1067 10^4 M^−1 | -37.63 | 5.0010 10^12 M^−1 s^−1 | 0.119 | 1.24 | -35.81 | 2.01 | n (binding sites) (BSA [2]; T 298 K): 1.54; K SV (quenching constant) (BSA [2]; T 310 K): 4.8646 ± 0.1370 10^4 M^−1; K q (quenching rate constant) (BSA [2]; T 310 K): 4.8646 10^12 M^−1 s^−1; ΔH (BSA [2]): -177.34 kJ/M; ΔS (BSA [2]): −456.55 J K^−1 M^−1; IC50 (MCF-7): 99.73 ± 0.11 µM; IC50 (MGC-803): 33.53 ± 0.13 µM
COC(=O)C(CC(C)C)NC(=O)COc1cc(O)c2c(=O)c(-c3ccc(O)cc3)coc2c1 (stereo not drawn) [4d] | 263.8 | 230/355 | 331.4 | 280/355 | 155.5 | 290/295 | 68.1 ± 1.05 | 92.87 ± 0.04 | 4.9339 ± 0.0500 10^4 M^−1 | -39.53 | 4.9339 10^12 M^−1 s^−1 | 0.15 | 1.47 | 4.8535 ± 0.0465 10^4 M^−1 | -37.19 | 4.8535 10^12 M^−1 s^−1 | 0.209 | 1.28 | -36.02 | 1.42 | n (binding sites) (BSA [2]; T 298 K): 1.50; K SV (quenching constant) (BSA [2]; T 310 K): 4.5804 ± 0.0360 10^4 M^−1; K q (quenching rate constant) (BSA [2]; T 310 K): 4.5804 10^12 M^−1 s^−1; ΔH (BSA [2]): -126.67 kJ/M; ΔS (BSA [2]): −292.42 J K^−1 M^−1; IC50 (MCF-7): 47 ± 3.53 µM; IC50 (MGC-803): 35.4 ± 3.72 µM
